Results as given in patent US20210323913A1, “SIGMA RECEPTOR BINDERS” (BOARD OF REGENTS, THE UNIVERSITY OF TEXAS SYSTEM, priority 2016, published 2021).
Read-outs that look alike come from different tables or passages of the source.

What was measured:
5-HT2B = 5-HT2B (Homo sapiens, UniProt P41595); experiment: Radioligand competition binding, 5-HT2B; details: Table 5; Cheng-Prusoff from best fit IC50
D5 = D5 (Homo sapiens, UniProt P21918); experiment: Radioligand competition binding, D5; details: Table 5; Cheng-Prusoff from best fit IC50
KOR = KOR (Homo sapiens, UniProt P41145); experiment: Radioligand competition binding, KOR; details: Table 5; Cheng-Prusoff from best fit IC50; some values marked (AVE)
5-ht5a = 5-ht5a (Homo sapiens, UniProt P47898); experiment: Radioligand competition binding, 5-ht5a; details: Table 5; Cheng-Prusoff from best fit IC50
sigma 1 receptor = sigma 1 receptor (Homo sapiens, UniProt Q99720); experiment: Sigma 1 receptor radioligand competition binding
Alpha2B = Alpha2B (Homo sapiens, UniProt P18089); experiment: Radioligand competition binding, Alpha2B; details: Table 5; Cheng-Prusoff from best fit IC50
MOR = MOR (Homo sapiens, UniProt P35372); experiment: Radioligand competition binding, MOR; details: Table 5; Cheng-Prusoff from best fit IC50
H2 = H2 (Homo sapiens, UniProt P25021); experiment: Radioligand competition binding, H2; details: Table 5; Cheng-Prusoff from best fit IC50
5-HT7 = 5-HT7 (Homo sapiens, UniProt P34969); experiment: Radioligand competition binding, 5-HT7; details: Table 5; Cheng-Prusoff from best fit IC50
sigma 2 receptor = sigma 2 receptor (Homo sapiens, UniProt Q5BJF2); experiment: Sigma 2 receptor radioligand competition binding
H1 = H1 (Homo sapiens, UniProt P35367); experiment: Radioligand competition binding, H1; details: Table 5; Cheng-Prusoff from best fit IC50
PBR = PBR (UniProt P16257); experiment: Radioligand competition binding, PBR; details: Table 5; Cheng-Prusoff from best fit IC50; one value marked (AVE)
D3 = D3 (Homo sapiens, UniProt P35462); experiment: Radioligand competition binding, D3; details: Table 5; Cheng-Prusoff from best fit IC50; one value marked (AVE)
Alpha2C = Alpha2C (Homo sapiens, UniProt P18825); experiment: Radioligand competition binding, Alpha2C; details: Table 5; Cheng-Prusoff from best fit IC50
5-HT2C = molecular target: T1, 5-HT2C (Homo sapiens, UniProt P28335); experiment: Radioligand competition binding, 5-HT2C; details: Table 5; Cheng-Prusoff from best fit IC50
T1 sequence (P28335 33-458): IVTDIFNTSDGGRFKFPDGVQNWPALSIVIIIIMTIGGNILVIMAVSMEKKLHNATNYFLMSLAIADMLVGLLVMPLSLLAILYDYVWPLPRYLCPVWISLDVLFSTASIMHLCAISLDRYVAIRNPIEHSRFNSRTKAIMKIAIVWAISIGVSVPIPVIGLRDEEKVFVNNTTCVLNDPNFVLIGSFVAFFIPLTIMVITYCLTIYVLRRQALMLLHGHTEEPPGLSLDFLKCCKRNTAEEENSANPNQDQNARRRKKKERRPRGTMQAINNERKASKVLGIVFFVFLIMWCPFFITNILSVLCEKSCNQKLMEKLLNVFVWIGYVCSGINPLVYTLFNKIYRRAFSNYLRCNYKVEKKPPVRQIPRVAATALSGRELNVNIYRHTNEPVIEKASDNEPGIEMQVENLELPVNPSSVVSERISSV

Alpha2A = molecular target: T2, Alpha2A (Homo sapiens, UniProt P08913); experiment: Radioligand competition binding, Alpha2A; details: Table 5; Cheng-Prusoff from best fit IC50
T2 sequence (P08913 1-465): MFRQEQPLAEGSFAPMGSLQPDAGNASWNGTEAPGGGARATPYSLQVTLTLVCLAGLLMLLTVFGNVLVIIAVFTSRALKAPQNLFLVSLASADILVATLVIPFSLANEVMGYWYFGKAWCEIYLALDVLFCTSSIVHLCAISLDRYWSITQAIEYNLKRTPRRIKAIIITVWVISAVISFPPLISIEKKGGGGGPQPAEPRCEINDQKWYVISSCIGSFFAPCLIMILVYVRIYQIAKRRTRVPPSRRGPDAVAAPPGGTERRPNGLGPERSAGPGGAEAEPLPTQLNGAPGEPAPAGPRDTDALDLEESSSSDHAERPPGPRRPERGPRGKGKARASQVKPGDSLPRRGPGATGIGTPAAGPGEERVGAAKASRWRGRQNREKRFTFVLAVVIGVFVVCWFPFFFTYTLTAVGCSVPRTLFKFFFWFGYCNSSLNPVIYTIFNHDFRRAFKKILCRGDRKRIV

5-HT6 = 5-HT6 (Homo sapiens, UniProt P50406); experiment: Radioligand competition binding, 5-HT6; details: Table 5; Cheng-Prusoff from best fit IC50
Alpha1D = Alpha1D (Homo sapiens, UniProt P25100); experiment: Radioligand competition binding, Alpha1D; details: Table 5; Cheng-Prusoff from best fit IC50
M5 = M5 (Homo sapiens, UniProt P08912); experiment: Radioligand competition binding, M5; details: Table 5; Cheng-Prusoff from best fit IC50
M4 = M4 (Homo sapiens, UniProt P08173); experiment: Radioligand competition binding, M4; details: Table 5; Cheng-Prusoff from best fit IC50; one value marked (AVE)
5-HT1D = 5-HT1D (Homo sapiens, UniProt P28221); experiment: Radioligand competition binding, 5-HT1D; details: Table 5; Cheng-Prusoff from best fit IC50
5-HT2A = 5-HT2A (Homo sapiens, UniProt P28223); experiment: Radioligand competition binding, 5-HT2A; details: Table 5; Cheng-Prusoff from best fit IC50
5-HT1A = molecular target: T3, 5-HT1A (Homo sapiens, UniProt P08908); experiment: Radioligand competition binding, 5-HT1A; details: Table 5; Cheng-Prusoff from best fit IC50
T3 sequence (P08908 1-422): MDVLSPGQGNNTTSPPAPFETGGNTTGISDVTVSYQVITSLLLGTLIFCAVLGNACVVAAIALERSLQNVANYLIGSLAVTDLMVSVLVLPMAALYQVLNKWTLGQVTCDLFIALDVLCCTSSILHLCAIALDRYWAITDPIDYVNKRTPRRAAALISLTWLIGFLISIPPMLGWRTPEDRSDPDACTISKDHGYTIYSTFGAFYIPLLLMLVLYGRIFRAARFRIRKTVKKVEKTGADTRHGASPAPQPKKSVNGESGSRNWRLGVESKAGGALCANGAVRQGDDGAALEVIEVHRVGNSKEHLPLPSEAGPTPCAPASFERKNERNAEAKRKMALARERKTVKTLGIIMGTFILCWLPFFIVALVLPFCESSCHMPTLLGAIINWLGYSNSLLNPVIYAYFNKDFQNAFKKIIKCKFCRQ

D1 = D1 (Homo sapiens, UniProt P21728); experiment: Radioligand competition binding, D1; details: Table 5; Cheng-Prusoff from best fit IC50; some values marked (AVE)
H3 = H3 (Homo sapiens, UniProt Q9Y5N1); experiment: Radioligand competition binding, H3; details: Table 5; Cheng-Prusoff from best fit IC50
[1] = Table 5, Cheng-Prusoff from best fit IC50, read-out: Ki Sigma 2

Ki (sigma 2 receptor; [1]) [nM]	SMILES	Ki (5-HT2B) [nM]	Ki (D5) [nM]	Ki (KOR) [nM]	Ki (5-ht5a) [nM]	Ki (H2) [nM]	Ki (5-HT7) [nM]	Ki (H1) [nM]	Ki (PBR) [nM]	Ki (D3) [nM]	further results
50	CN(CCCO)C1CCCc2ccc(-c3ccc(C(F)(F)F)cc3)cc21 (stereo not drawn) [MDW-1-144, 3-(Methyl(7-(4-(trifluoromethyl)phenyl)-1,2,3,4-tetrahydronaphthalen-1-yl)amino)propan-1-ol]	3590	> 10000	154	> 10000	327	2400	–	–	–	Ki (sigma 1 receptor; Table 5, Cheng-Prusoff from best fit IC50, read-out: Ki Sigma 1): 1270 nM; Ki (Alpha2B): 524 nM; Ki (MOR): 307 nM
522	CN(Cc1cc(Cl)cc(Cl)c1)C1CCCc2ccc(N3CCOCC3)cc21 (stereo not drawn) [MDW-1-131, N-(3,5-dichlorobenzyl)-N-methyl-7-morpholino-1,2,3,4-tetrahydronaphthalen-1-amine]	–	–	–	–	–	–	182	902	3390	Ki (Alpha2C): 2540 nM

SMILES	Ki (sigma 2 receptor; [1]) [nM]	Ki (5-HT2B) [nM]	Ki (D5) [nM]	Ki (KOR) [nM]	Ki (5-ht5a) [nM]	Ki (H2) [nM]	Ki (5-HT7) [nM]	Ki (H1) [nM]	Ki (PBR) [nM]	Ki (D3) [nM]	further results
CN(C(=O)OCc1ccccc1)C1CCCc2ccc(N3CCN(C4CCCC4)CC3)cc21 (stereo not drawn) [MDW-1-140, Benzyl (7-(4-cyclopentylpiperazin-1-yl)-1,2,3,4-tetrahydronaphthalen-1-yl)(methyl)carbamate]	2.1	263	2600	≥ 10000	2500	211	1480	28	4060	462	Ki (5-HT2C): 1460 nM; Ki (Alpha2A): 1110 nM; Ki (5-HT6): 1020 nM; Ki (Alpha1D): 1810 nM; Ki (M5): 3690 nM; Ki (sigma 1 receptor; Table 1, 7-piperazinyl-tetrahydronaphthalene analogs, read-out: Ki (nM) Sig1R): 86 nM; Ki (M4): 2980 nM; Ki (5-HT1D): 509 nM; Ki (5-HT2A): 547 nM; Ki (5-HT1A): 367 nM; Ki (D1): 457 nM; Ki (sigma 2 receptor; Table 1, 7-piperazinyl-tetrahydronaphthalene analogs, read-out: Ki (nM) Sig2R): 2 nM; Ki ratio Sig1R/Sig2R (sigma 2 receptor; Table 1, ratio of Sig1R Ki to Sig2R Ki): 41; Ki (H3): 965 nM
